Substitutions are numbered along the chain they refer to. Where two headings read alike, the source gives them in different places. Each block holds one molecule with its values, some of them ahead of it.
Assays:
E234G HYPE = molecular target: T1, E234G HYPE (Homo sapiens, UniProt Q9BVA6, E234G); assay: Fluorescence polarization (FP) microplate autoAMPylation assay with Fl-ATP, E234G HYPE inhibitor HTS, cherrypick validation and concentration-response; assay type: biochemical; details: for inhibition at 10 µM / % Inh. Cherry-pick / % Inh. HTS: 10 μM compound; for Mean % Inh.: mean of HTS and cherrypick
T1 construct: Δ102 (aa 103-458) HYPE constructs (WT, E234G, and E234G/H363A); His6-SUMO (cleaved yes); made in house; host or cells: E. coli BL21-DE3-RILP
T1 sequence (Q9BVA6 103-458 E234G): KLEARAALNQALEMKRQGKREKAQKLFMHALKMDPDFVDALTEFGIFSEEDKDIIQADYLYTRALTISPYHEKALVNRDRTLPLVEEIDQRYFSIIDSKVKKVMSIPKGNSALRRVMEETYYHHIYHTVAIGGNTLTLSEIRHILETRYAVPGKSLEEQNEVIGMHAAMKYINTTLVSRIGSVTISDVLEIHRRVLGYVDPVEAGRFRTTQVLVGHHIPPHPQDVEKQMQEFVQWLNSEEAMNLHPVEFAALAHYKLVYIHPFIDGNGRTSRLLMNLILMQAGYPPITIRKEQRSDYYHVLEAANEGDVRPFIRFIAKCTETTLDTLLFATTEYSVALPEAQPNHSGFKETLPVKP
Description: Buffer optimization experiments were performed by incubating 0.4 μM of Δ102 HYPE enzyme with 25 nM Fl-ATP (final concentrations) in HTS buffer (50 mM HEPES (pH 7.5), 1 mM MgCl2, 0.1% Triton X-100, 1% DMSO) in the dark at room temperature for 10 min in 384-well black bottom, black wall microplates (20 μL reaction volume). Where specified, 1 mM MgCl2 was replaced with an equivalent concentration of MnCl2, or 0.1% Triton X-100 was replaced with 0.05% or 0.01% Trion X-100. Microplates were snap centrifuged at 1000 g for 10 sec. Microplates were loaded onto a BioTek BioStack NEO2 plate-reader and assessed for fluorescence polarization with 485/530 nm filters and a 55/50 gain adjustment.
A Multidrop 384 reagent dispenser (ThermoFisher) was used to add 0.4 μM HYPE, then 25 nM Fl-ATP (final concentrations) to 384-well black/black microplates (20 μL reaction volume). Both enzyme and nucleotide were dissolved in HTS Buffer. AMPylation Reactions were incubated for 10 min at room temperature in the dark. Microplates were snap centrifuged at 1000 g for 10 sec, then transferred to BioTek BioStack NEO2 plate-reader. Reactions were assessed for fluorescence polarization with 485/530 nm filters and a 55/50 gain adjustment. Z′, S/B, and CV values were determined by fitting the data to Eq. 1, 2, and 3, respectively,
An Echo Liquid Handler (Labcyte) was used to transfer 200 nL of DMSO-dissolved compounds via acoustic-coupled ejection from 10 mM source plates into 384-well black, flat-bottom, black-walled microplates, for a final compound concentration of 10 μM. Compounds were sourced from the following libraries: DIVERset (Chembridge), CNS-Set (Chembridge). The compounds went into columns 3-22 of each plate, while columns 1, 2, 23, and 24 were reserved for equivalent volume of 100% DMSO controls.
A Multidrop 384 reagent dispenser was used to pipette 0.4 μM of WT HYPE (final concentration) dissolved in HTS Buffer into columns 1-22 of the activator plates, and columns 1 and 2 of the inhibitor plates as positive controls. 0.4 μM of E234G HYPE was similarly added to columns 3-24 of the inhibitor plates, and columns 23 and 24 of the […]. Enzymes were then incubated with either compounds or DMSO for 10 min at room temperature.
A Multidrop 384 reagent dispenser was used to pipette 25 nM of Fl-ATP (final concentration) into all wells of each plate, giving a final reaction volume of 20 μL. Plates were then incubated for 10 min at room temperature in the dark, followed by a snap centrifugation at 1000 g for 10 sec. Microplates were loaded onto BioTek BioStack stacker and read in succession for fluorescence polarization with 485/530 nm filters and a 55/50 gain adjustment. Fluorescence polarization values were converted to fractional activation (FA) or fractional inhibition FI) values according to Eq. (3) or (4), respectively,
[formula] [formula] • where μp and μn are the means of the positive (E234G HYPE) and negative (WT HYPE) controls, respectively; and x is the measured value of fluorescence polarization.
Microplate “cherrypicking” validations were performed as described above.
A Multidrop 384 reagent dispenser was used to pipette 0.4 μM of WT or E234G HYPE (final concentrations) dissolved in HTS Buffer into designated microplate wells. 10 μM of DMSO-dissolved compounds (final concentrations) or equivalent volume of 100% DMSO were manually pipetted into their specified wells. Enzymes were incubated with compounds or DMSO for 10 min at room temperature. Reagent dispenser was then used to pipette 25 nM of Fl-ATP (final concentration) into each well, followed by a 10 min incubation at room temperature in the dark. Plates were snap centrifuged at 1000 g for 10 sec, then transferred to BioTek BioStack NEO2 plate-reader. Reactions were assessed for fluorescence polarization with 485/530 nm filters and a 55/50 gain adjustment. EC50 and IC50 values were determined by fitting polarization values to Eq. (5) and (6), respectively, […]

HeLa cells = assay: MTT cell viability assay, HeLa; assay type: cell-based, human; details: HeLa, 48 hr
Description: The cell lines were procured from ATCC (American Type Culture Collection) and cultured in DMEM (Dulbecco's Modified Eagle Medium) supplemented with 10% FBS (fetal bovine serum) without antibiotics. Cells were grown and maintained in a humidified incubator at 37° C. with 5% CO2. For the MTT assay, cells were trypsinized and harvested at ˜80-90% confluency and seeded in 96 well plates at a density of 1×10^4 cells per well. The seeded cells were incubated overnight and treated with 1 μM, 3 μM, 5 μM, 7 μM, 10 μM, 20 μM, 30 μM or 50 μM (final concentration) of DMSO-dissolved compound for 48 hr. To rule out vehicle induced toxicity, only 0.5% of final DMSO concentration was added to the cells. Post-incubation, the compound treatment was removed and replaced with 0.5 mg/ml (final concentration) of freshly prepared MTT solution. After incubating for 3.5 hr at 37° C., 5% CO2 humidified incubator, MTT was carefully removed without aspirating the formazan crystals and replaced with equivalent volume of DMSO to dissolve the formazan crystals. The plates were then read using a multi-plate reader at 570 nm. The absorbance was recorded and % viability was calculated according to the following equation:
[formula] • where, Abt is the absorbance of compound treated cells and Abc is the absorbance of control cells.

[1] = molecular target: T2, IbpA-Fic2 (IbpA-2) AMPylation of Cdc42 (Histophilus somni, UniProt Q06277); assay: Radioactive in-gel AMPylation assay with WT IbpA-Fic2, Cdc42 and α-32P-ATP (cross reactivity); assay type: biochemical; details: 10 μM compound, versus DMSO control
T2 construct: a construct solely containing the second of the two domains, IbpA-2; made in house
Description: 1 μM of HYPE (final concentration) and (where specified) 5 μM of T229A BiP (final concentration) were preincubated with 10 μM DMSO-dissolved compound (final concentration) or equivalent volume of 100% DMSO at room temperature for 10 min in HTS Buffer. Reactions were run for 10 min at 30° C. and began with the addition of 0.01 μCi/μL α-32P-ATP (final concentration). All reactions were performed according to our previously described protocol for in vitro radioactive AMPylation assays19. Where specified, 5 μM of T229A BiP (final concentration) was added to reactions before the addition of compound.
All bacterial Fic specificity assays were conducted with 1 μM GST-tagged IbpA-Fic2, 5 μM GST-tagged Q61L Cdc42, and 0.01 μCi/μL α-32P-ATP (all final concentrations). All other reaction parameters were kept as per HYPE radiolabeled in-gel AMPylation assays.

WT HYPE = molecular target: T3, WT HYPE (Homo sapiens, UniProt Q9BVA6); assay: Fluorescence in-gel autoAMPylation assay with WT HYPE and Fl-ATP; assay type: biochemical; details: 10 μM compound, versus DMSO control
T3 construct: Δ102 (aa 103-458) HYPE constructs (WT, E234G, and E234G/H363A); His6-SUMO (cleaved yes); made in house; host or cells: E. coli BL21-DE3-RILP
T3 sequence (Q9BVA6 103-458): T1 sequence (Q9BVA6 103-458 E234G) with G132E
Description: 1 μM of WT HYPE (final concentration) was preincubated with 10 μM DMSO-dissolved compound (final concentration) or equivalent volume of 100% DMSO at room temperature for 10 min. Reactions were run for 20 hr at 30° C. in the dark and began with the addition of 1 μM Fl-ATP (final concentration). Alternatively, E234G HYPE AMPylation reactions were run at 10 min due to its hyperactivity. All other parameters were held constant. All reactions were performed HTS Buffer (50 mM HEPES, 1 mM MgCl2, 0.1% Triton X-100, pH 7.50). All reactions were quenched with 4×SDS loading dye, boiled for 5 min at 95° C., and samples were run on 12% SDS-PAGE gels. Gels were imaged on a Typhoon 9500 FLA imager (General Electric) for fluorescence at 473 nm. Imaged gels were then stained with Coomassie Brilliant Blue, destained, and imaged for protein concentration. Where specified, 5 μM of T229A BiP (final concentration) was added to reactions before the addition of compound.

HYPE = details: pilot screen of nearly 10,000 compounds; cited from earlier work
[2] = cherrypick validation, same FP assay, read-out: % Inh. Cherry-pick
[3] = initial HTS, normalized to WT and E234G HYPE DMSO controls, read-out: % Inh. HTS
[4] = cherrypick validation, same FP assay
[5] = initial HTS, normalized to WT and E234G HYPE DMSO controls

T2 sequence (Q06277 3640-3777): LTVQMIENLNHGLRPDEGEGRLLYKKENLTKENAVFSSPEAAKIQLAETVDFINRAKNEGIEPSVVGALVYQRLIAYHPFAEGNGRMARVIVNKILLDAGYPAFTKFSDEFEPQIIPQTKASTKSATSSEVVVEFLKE

inhibition at 10 µM (E234G HYPE; [2]): 33.6%
inhibition at 10 µM (E234G HYPE; [3]): 27.1%
Mean % Inh. (E234G HYPE): 30.4%
SMILES: Oc1cc(-c2ccc(F)cc2)nn1-c1nc2ccccc2[nH]1 [Compound I2.12]

inhibition at 10 µM (E234G HYPE; [2]): 29.7%
inhibition at 10 µM (E234G HYPE; [3]): 32.7%
Mean % Inh. (E234G HYPE): 31.2%
SMILES: Cc1nn(-c2nc3ccccc3[nH]2)c2c1C(c1cc(Br)ccc1F)CC(=O)N2 (stereo not shown) [Compound I2.6]

inhibition at 10 µM (E234G HYPE; [2]): 27.8%
inhibition at 10 µM (E234G HYPE; [3]): 27.2%
Mean % Inh. (E234G HYPE): 27.5%
SMILES: CCc1ccc(N2CC(c3noc(-c4ccc(C#N)cc4)n3)CC2=O)cc1 (stereo not shown) [Compound I2.9]

% Inh. Cherry-pick (E234G HYPE; [4]): 24.6%
% Inh. HTS (E234G HYPE; [5]): 19.9%
Mean % Inh. (E234G HYPE): 22.3%
SMILES: Oc1ccc(CN2CCCCC2)c2cccnc12 [Compound I2.11]

inhibition at 10 µM (E234G HYPE; [2]): 34.2%
inhibition at 10 µM (E234G HYPE; [3]): 20.9%
Mean % Inh. (E234G HYPE): 27.6%
SMILES: O=C1Nc2ccc(Br)cc2C12NN=C(c1ccccc1)S2 (stereo not shown) [Compound I2.7]

The next lines start with the molecule.

SMILES: Cc1nn(-c2nc3ccccc3[nH]2)c2c1C(c1ccc(F)cc1F)CC(=O)N2 (stereo not shown) [Compound I2.5]
inhibition at 10 µM (E234G HYPE; [2]): 32.9%
inhibition at 10 µM (E234G HYPE; [3]): 23.5%
Mean % Inh. (E234G HYPE): 28.2%

SMILES: Clc1ccc(C(c2ccc(Cl)cc2)n2cc[n+](CC(OCc3ccc(Cl)cc3Cl)c3ccc(Cl)cc3Cl)c2)cc1 (stereo not shown) [Compound A1, calmidazolium]
concentration impacting cell viability (HeLa cells): ≤ 1000 nM
effect on IbpA-2 AMPylation of Cdc42 [1]: lack of AMPylation enhancement
activation of WT HYPE autoAMPylation in gel (WT HYPE): bioactive above our DMSO control
effect on HYPE-mediated AMPylation in vitro (HYPE): enhance

SMILES: CN(Cc1cccc2cnccc12)C(=O)c1cnc(-c2ccccn2)nc1O [Compound I2.3]
% Inh. Cherry-pick (E234G HYPE; [4]): 30.7%
% Inh. HTS (E234G HYPE; [5]): 35.0%
Mean % Inh. (E234G HYPE): 32.9%

SMILES: CN(Cc1ccccn1)C(C(=O)O)c1ccc2c(c1)OCO2 (stereo not shown) [Compound I2.2]
inhibition at 10 µM (E234G HYPE; [2]): 22.7%
inhibition at 10 µM (E234G HYPE; [3]): 20.3%
Mean % Inh. (E234G HYPE): 21.5%

SMILES: CCCc1cc(O)n(-c2nc3ccccc3[nH]2)n1 [Compound I2.4]
inhibition at 10 µM (E234G HYPE; [2]): 31%
inhibition at 10 µM (E234G HYPE; [3]): 27.8%
Mean % Inh. (E234G HYPE): 29.4%

SMILES: CCCCn1ccnc1C1CCCN(Cc2ccccn2)C1 (stereo not shown) [Compound I2.1]
% Inh. Cherry-pick (E234G HYPE; [4]): 29.7%
% Inh. HTS (E234G HYPE; [5]): 32.5%
Mean % Inh. (E234G HYPE): 31.1%
